Three compounds from patent US12275731B2, “Azaindole inhibitors of wild-type and mutant forms of LRRK2” (DANA-FARBER CANCER INSTITUTE, INC., priority 2018, dated 2025) can be followed below.

What all share (experiment): KinomeScan profiling
What all share (format): binding

Test [1] deals with T1, AMPK-alpha1 (Homo sapiens, UniProt Q13131).
T1 construct: purchased KinomeScan®
The note with it: AMPK-alpha1, 1 μM; read-out: % control. A digest of the protocol: (§1)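 First, compounds in DMSO are added at 1 μM to each of 468 kinase assays. Next, RLU signals are normalised between positive control (0%) and DMSO (100%). Finally, kinases under 35% are flagged active.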

In test [2] the target is ERK2 (Homo sapiens, UniProt P28482). The note with it: ERK2, 1 μM; read-out: % control. An outline of the steps: as §1
Test [3] concerns the target T2, PIK3CA(E545K) (Homo sapiens, UniProt P42336, E545K).
T2 construct: purchased KinomeScan® (panel service)
The note with it: read-out: % control. A digest of the protocol: as §1

For test [4], the target named is T3, RIPK1 (Homo sapiens, UniProt Q13546).
T3 sequence (Q13546 1-671): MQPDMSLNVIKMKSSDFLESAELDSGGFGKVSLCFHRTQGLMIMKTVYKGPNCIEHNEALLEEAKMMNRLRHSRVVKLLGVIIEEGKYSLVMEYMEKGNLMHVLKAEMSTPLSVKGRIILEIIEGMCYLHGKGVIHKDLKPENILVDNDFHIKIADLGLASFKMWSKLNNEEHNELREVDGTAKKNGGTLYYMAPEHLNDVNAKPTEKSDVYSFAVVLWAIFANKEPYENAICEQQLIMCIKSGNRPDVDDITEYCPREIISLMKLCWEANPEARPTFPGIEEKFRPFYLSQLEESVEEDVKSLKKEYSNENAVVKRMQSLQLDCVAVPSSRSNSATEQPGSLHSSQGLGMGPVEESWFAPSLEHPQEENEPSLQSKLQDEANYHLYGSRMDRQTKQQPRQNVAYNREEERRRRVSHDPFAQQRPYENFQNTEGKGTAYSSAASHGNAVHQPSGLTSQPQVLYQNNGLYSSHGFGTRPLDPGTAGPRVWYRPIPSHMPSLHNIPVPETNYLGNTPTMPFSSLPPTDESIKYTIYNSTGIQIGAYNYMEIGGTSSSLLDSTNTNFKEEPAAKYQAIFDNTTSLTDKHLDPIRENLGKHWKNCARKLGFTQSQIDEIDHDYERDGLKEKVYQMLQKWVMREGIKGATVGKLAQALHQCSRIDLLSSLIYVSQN
The note with it: RIPK1, 1 μM; read-out: % control. A digest of the protocol: as §1

The target in test [5] is PCTK1 (Homo sapiens, UniProt Q00536). The note with it: PCTK1, 1 μM; read-out: % control. A digest of the protocol:
as §1

For test [6], the target named is T4, NEK11 (Homo sapiens, UniProt Q8NG66).
T4 sequence (Q8NG66 1-645): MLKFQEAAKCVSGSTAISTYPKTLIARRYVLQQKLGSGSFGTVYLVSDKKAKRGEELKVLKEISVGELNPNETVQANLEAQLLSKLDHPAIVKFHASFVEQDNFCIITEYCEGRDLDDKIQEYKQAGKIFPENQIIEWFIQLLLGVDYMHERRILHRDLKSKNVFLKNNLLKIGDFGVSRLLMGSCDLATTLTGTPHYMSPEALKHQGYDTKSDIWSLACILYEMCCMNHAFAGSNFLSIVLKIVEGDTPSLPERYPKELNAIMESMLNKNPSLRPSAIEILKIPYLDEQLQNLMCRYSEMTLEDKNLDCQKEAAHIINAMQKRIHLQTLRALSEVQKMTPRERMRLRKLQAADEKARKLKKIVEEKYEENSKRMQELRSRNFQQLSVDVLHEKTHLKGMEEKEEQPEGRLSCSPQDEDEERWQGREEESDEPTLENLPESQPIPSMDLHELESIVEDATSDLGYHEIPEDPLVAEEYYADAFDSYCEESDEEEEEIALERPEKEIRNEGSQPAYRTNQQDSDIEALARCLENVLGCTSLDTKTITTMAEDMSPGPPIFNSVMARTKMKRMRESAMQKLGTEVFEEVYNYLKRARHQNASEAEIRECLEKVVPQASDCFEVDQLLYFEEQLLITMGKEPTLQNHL
The note with it: NEK11, 1 μM; read-out: % control. A digest of the protocol: as §1

In test [7] the target is T5, SGK (Homo sapiens, UniProt O00141).
T5 construct: purchased KinomeScan® (panel service)
T5 sequence (O00141 1-431): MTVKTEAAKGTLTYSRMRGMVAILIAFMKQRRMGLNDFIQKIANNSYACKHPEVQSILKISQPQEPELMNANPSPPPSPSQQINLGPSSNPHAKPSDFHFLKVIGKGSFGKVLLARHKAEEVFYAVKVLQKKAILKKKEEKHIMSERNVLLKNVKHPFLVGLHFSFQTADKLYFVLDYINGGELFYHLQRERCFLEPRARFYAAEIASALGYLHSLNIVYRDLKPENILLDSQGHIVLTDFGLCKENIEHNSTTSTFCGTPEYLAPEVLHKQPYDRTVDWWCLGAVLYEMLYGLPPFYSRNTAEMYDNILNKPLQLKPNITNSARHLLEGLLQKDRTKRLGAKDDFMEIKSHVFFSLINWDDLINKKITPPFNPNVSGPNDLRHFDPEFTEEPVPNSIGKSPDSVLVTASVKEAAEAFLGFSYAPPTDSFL
The note with it: read-out: % control. A digest of the protocol:
as §1

The target of test [8] is T6, PRKX (Homo sapiens, UniProt P51817).
T6 sequence (P51817 1-358): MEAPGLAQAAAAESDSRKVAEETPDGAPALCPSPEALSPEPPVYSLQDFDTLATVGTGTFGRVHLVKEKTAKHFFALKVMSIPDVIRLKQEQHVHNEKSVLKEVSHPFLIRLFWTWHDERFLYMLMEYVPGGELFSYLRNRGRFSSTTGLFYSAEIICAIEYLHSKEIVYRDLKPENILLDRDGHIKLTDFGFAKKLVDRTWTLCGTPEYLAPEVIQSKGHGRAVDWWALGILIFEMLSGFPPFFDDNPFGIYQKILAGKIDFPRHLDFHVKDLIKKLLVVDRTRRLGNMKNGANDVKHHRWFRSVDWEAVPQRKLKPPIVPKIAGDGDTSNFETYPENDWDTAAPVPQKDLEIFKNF
The note with it: read-out: % control. An outline of the steps:
as §1

Chain of PCTK1 (Q00536 whole entry): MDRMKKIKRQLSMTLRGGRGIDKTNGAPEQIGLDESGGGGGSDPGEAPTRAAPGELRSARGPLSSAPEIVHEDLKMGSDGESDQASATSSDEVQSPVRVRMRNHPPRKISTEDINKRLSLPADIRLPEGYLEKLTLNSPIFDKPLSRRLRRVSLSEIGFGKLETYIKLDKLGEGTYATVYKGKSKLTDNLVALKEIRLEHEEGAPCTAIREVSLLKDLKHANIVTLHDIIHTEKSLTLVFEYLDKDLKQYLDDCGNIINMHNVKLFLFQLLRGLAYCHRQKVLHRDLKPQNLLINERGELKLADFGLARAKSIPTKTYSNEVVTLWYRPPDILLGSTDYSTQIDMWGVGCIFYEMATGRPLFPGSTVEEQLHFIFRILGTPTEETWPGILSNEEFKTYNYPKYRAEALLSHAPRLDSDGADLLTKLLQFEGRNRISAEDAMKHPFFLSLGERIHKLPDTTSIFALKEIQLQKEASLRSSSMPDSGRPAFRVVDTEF
Chain of ERK2 (P28482 whole entry): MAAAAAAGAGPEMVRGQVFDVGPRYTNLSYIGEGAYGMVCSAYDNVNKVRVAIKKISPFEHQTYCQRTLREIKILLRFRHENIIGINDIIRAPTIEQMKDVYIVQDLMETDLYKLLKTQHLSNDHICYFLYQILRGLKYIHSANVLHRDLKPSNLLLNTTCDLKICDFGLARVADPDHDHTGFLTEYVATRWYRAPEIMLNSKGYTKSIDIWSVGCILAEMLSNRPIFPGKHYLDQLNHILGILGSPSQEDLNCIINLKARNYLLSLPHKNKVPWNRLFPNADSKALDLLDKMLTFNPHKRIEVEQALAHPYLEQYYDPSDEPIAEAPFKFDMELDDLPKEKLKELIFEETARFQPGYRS
T1 sequence (Q13131 whole entry): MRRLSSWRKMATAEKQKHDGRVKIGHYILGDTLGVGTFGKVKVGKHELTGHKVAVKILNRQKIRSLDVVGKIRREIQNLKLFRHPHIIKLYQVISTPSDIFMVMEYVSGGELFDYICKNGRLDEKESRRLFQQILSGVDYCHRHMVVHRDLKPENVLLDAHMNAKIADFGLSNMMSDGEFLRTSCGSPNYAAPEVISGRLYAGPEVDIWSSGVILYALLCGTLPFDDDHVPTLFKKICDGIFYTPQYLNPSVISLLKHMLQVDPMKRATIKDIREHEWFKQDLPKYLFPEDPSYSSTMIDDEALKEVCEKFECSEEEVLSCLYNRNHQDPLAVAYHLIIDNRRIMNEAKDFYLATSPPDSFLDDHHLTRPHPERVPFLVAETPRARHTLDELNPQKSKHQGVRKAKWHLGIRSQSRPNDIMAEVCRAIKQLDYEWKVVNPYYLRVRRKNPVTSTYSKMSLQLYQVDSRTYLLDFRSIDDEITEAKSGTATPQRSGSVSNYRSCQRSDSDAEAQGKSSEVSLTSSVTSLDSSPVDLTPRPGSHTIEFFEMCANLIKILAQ
T2 sequence (P42336 whole entry E545K): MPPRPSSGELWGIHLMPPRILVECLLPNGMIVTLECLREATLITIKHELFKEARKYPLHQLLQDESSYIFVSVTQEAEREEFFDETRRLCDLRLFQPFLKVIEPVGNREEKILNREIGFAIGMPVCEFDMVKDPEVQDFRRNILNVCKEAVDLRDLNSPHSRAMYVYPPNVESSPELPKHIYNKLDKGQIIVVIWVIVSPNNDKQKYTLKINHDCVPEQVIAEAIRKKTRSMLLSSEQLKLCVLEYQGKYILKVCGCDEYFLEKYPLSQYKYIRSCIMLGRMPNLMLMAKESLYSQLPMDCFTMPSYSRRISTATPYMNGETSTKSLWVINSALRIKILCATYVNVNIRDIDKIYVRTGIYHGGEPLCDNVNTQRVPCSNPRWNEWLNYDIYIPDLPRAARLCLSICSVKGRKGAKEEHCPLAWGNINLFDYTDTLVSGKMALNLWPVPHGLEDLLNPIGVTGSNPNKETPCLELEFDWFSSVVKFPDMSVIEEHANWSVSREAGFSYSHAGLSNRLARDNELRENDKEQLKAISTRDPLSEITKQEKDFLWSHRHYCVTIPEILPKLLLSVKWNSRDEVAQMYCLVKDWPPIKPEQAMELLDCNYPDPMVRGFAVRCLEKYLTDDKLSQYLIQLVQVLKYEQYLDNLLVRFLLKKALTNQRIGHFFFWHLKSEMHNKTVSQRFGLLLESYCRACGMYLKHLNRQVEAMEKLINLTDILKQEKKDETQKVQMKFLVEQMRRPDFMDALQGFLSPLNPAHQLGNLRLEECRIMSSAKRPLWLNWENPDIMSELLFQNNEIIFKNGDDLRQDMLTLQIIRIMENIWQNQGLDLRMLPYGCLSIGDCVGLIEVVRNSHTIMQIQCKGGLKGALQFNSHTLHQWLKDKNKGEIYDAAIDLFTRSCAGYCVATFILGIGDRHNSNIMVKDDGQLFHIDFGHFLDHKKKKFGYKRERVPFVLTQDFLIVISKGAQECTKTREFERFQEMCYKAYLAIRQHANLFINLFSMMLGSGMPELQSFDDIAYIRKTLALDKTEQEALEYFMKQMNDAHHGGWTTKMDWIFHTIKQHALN

Consider `CNc1c(-c2ccc(C(=O)N3CCC(N4CCOCC4)CC3)cc2)cnc2[nH]cc(Cl)c12` [Compound 96, (4-(3-chloro-4-(methylamino)-1H-pyrrolo[2,3-b]pyridin-5-yl)phenyl)(4-morpholinopiperidin-1-yl)methanone], for which the remaining binding at 1 µM was 75% in test [1]; 95% in test [2]; 31% in test [3]; 44% in test [4]; 86% in test [5]; 96% in test [6]. The results for the remaining binding at 1 µM in test [7] and in test [8] were 7.3% and 100%, respectively.

Turning to `O=C(c1ccc(-c2cnc3[nH]cc(Cl)c3c2NC2CCCC2)cc1)N1CCC(N2CCOCC2)CC1` [Compound 101, (4-(3-chloro-4-(cyclopentylamino)-1H-pyrrolo[2,3-b]pyridin-5-yl)phenyl)(4-morpholinopiperidin-1-yl)methanone], the remaining binding at 1 µM in test [1] was 78%; in test [2], 93%; in test [3], 79%; in test [4] it was 47%; in test [5], 100%; in test [6], 100%. Also, the remaining binding at 1 µM was found to be 86% in test [7] and 82% in test [8].

As to `CNc1c(-c2cnn([C@H]3CCN(C(C)=O)C[C@@H]3F)c2)cnc2[nH]cc(Cl)c12` [Compound 77, 1-((3S,4S)-4-(4-(3-chloro-4-(methylamino)-1H-pyrrolo[2,3-b]pyridin-5-yl)-1H-pyrazol-1-yl)-3-fluoropiperidin-1-yl)ethan-1-one], the remaining binding at 1 µM in test [1] worked out at 100%; in test [2] it was 91%; in test [3], 18%; in test [4], 19%; in test [5], 85%; in test [6] it was 97%. Further, the remaining binding at 1 µM in test [7] came to 17%; in test [8], 100%.
